US20110173718A1, “HERBICIDE TOLERANT PLANTS” (SYNGENTA CROP PROTECTION, INC., priority 2008, published 2011)
Values joined by “and” are separate entries in the source; they are usually repeats but may differ in a detail not shown here. Equal entries are not always repeated. Where two headings read alike, the source gives them in different places.

Assays:
Format in all cases: in vivo
weeds = assay: Glasshouse weed control, HST inhibitors alone and with A22, post-emergence; details: 336 h, 14 DAT, single replicate, read-out: % control score, Obs; for pest or weed control at 15.625 g/ha: 15.625 g/ha alone; for pest or weed control at 62.5 g/ha: 62.5 g/ha alone; for pest or weed control at 250 g/ha: 250 g/ha alone
In short: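 Weeds grown in glasshouse trays (24-27 C day, 18-21 C night, ~15 h photoperiod) and track-sprayed in 0.2% X77 at […], pre-emergence or post-emergence at about 7-12 d. HPPD inhibitor A22 applied at 2 g/ha alone or mixed with HST herbicides. Damage scored 0–100% at 14 DAT; synergy calculated by Colby formula.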

[1] = tested on: tobacco plants expressing Wheat HPPD; assay: Glasshouse spray test, wheat HPPD transgenic tobacco; details: for blch (% bleaching at the meristem relative to control plants) / ht (% height reduction relative to control plants): 100 g, individual T0 lines; for % damage observed 16 DAT: Wheat HPPD T1
Text: Transgenic lines of tobacco, soyabean and corn etc. can be engineered to express various heterologous HPPDs derived from, for example Avena (SEQ ID #26), Wheat (SEQ ID #27), Pseudomonas fluorescens (SEQ ID # 25) and Shewanella colwelliana (SEQ ID #28) as, for example, described in WO 02/46387.
Single copy events amongst the T1 plant lines are identified by their 3:1 segregation ratio (wrt kanamycin and or herbicide) and by quantitative RT-PCR. Seed from the thus selected T1 tobacco (var Samsun) lines are sown in 3 inch diameter pots containing 50% peat, 50% John Innes soil no 3. After growth to the 3 leaf stage, plants are sprayed, as described above, in order to test for herbicide tolerance relative to like-treated non-transgenic tobacco plants. […]
Exactly as described in example 5 of WO 02/46387 the wheat HPPD gene sequence (Embl DD064495) is cloned behind an Arabidopsis Rubisco small subunit (SSU) promoter and in front of a nos gene terminator to produce an SSU Wheat HPPD nos expression cassette' which is cloned into a binary vector and transformed into tobacco to produce a population of 30-50 transgenic events.

[2] = tested on: wild-type (WT) Samsun tobacco; assay: Glasshouse spray test, wild-type tobacco; details: for blch (% bleaching at the meristem relative to control plants) / ht (% height reduction relative to control plants): 100 g; for blch (% bleaching at the meristem relative to control plants) / ht (% height reduction relative to control plants) / percent damage at 6 DAT: WT; for % damage at 7 DAT: WT Samsun, individual plants; for % damage observed 16 DAT: w/t tobacco
In short: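 Wild-type Samsun tobacco grown from seed was planted in 3 inch pots, grown on under glasshouse conditions (about 24-27° C. day, 18-21° C. night, ~14 h photoperiod, ~65% humidity) and spray-treated alongside transgenic lines. Test chemicals were formulated in water with 0.2% X77 surfactant and applied by track sprayer at 200 l/ha. Height reduction, bleaching and damage were scored against unsprayed control plants of like size.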

[3] = 17 DAT, Chlamydomonas HST section
[4] = WT tobacco, spray with 500 g of compound 2.30, 7 DAT
[5] = WT tobacco, spray with 500 g of compound 2.30, 17 DAT

O=c1c(-c2c(Cl)ccc(Cl)c2Cl)c(O)c2nccnc2n1CC(F)F [Compound 2.14]
pest or weed control at 15.625 g/ha (weeds; BRAPL): 30%
pest or weed control at 62.5 g/ha (weeds; BRAPL): 60%
pest or weed control at 250 g/ha (weeds; BRAPL): 60%
pest or weed control at 15.625 g/ha (weeds; PANMI): 40%
pest or weed control at 62.5 g/ha (weeds; PANMI): 60%
pest or weed control at 250 g/ha (weeds; PANMI): 90%
pest or weed control at 15.625 g/ha (weeds; SIDSP): 15%
pest or weed control at 62.5 g/ha (weeds; SIDSP): 30%
pest or weed control at 250 g/ha (weeds; SIDSP): 50%
pest or weed control at 15.625 g/ha (weeds; Digitaria sanguinalis, DIGSA): 10%
pest or weed control at 62.5 g/ha (weeds; Digitaria sanguinalis, DIGSA): 20%
pest or weed control at 250 g/ha (weeds; Digitaria sanguinalis, DIGSA): 20%
pest or weed control at 15.625 g/ha (weeds; Echinochloa crus-galli, ECHCG): 30%
pest or weed control at 62.5 g/ha (weeds; Echinochloa crus-galli, ECHCG): 50%
pest or weed control at 250 g/ha (weeds; Echinochloa crus-galli, ECHCG): 65%
pest or weed control at 15.625 g/ha (weeds; Setaria faberi, SETFA): 25%
pest or weed control at 62.5 g/ha (weeds; Setaria faberi, SETFA): 60%
pest or weed control at 250 g/ha (weeds; Setaria faberi, SETFA): 70%

O=c1c(-c2c(F)ccc(Br)c2Cl)c(O)c2cccnc2n1CC(F)F [Compound 2.15]
pest or weed control at 15.625 g/ha (weeds; BRAPL): 0%
pest or weed control at 62.5 g/ha (weeds; BRAPL): 0%
pest or weed control at 250 g/ha (weeds; BRAPL): 5%
pest or weed control at 15.625 g/ha (weeds; PANMI): 0%
pest or weed control at 62.5 g/ha (weeds; PANMI): 0%
pest or weed control at 250 g/ha (weeds; PANMI): 0%
pest or weed control at 15.625 g/ha (weeds; SIDSP): 0%
pest or weed control at 62.5 g/ha (weeds; SIDSP): 10%
pest or weed control at 250 g/ha (weeds; SIDSP): 15%
pest or weed control at 15.625 g/ha (weeds; Digitaria sanguinalis, DIGSA): 0%
pest or weed control at 62.5 g/ha (weeds; Digitaria sanguinalis, DIGSA): 0%
pest or weed control at 250 g/ha (weeds; Digitaria sanguinalis, DIGSA): 0%
pest or weed control at 15.625 g/ha (weeds; Echinochloa crus-galli, ECHCG): 0%
pest or weed control at 62.5 g/ha (weeds; Echinochloa crus-galli, ECHCG): 0%
pest or weed control at 250 g/ha (weeds; Echinochloa crus-galli, ECHCG): 2%
pest or weed control at 15.625 g/ha (weeds; Setaria faberi, SETFA): 0%
pest or weed control at 62.5 g/ha (weeds; Setaria faberi, SETFA): 0%
pest or weed control at 250 g/ha (weeds; Setaria faberi, SETFA): 2%

CC(C)C(=O)Oc1c(-c2c(F)ccc(Br)c2Cl)c(=O)n(CC(F)F)c2nccnc12 [Compound 2.30]
blch (% bleaching at the meristem relative to control plants) ([1]; 7 DAT): 35% (5×) and 40% (5×) and 50% (2×) and 60% (2×) and 30% (6×) and 70% (2×) and 10% (2×)
ht (% height reduction relative to control plants) ([1]; 7 DAT): 50% (5×) and 60% (3×) and 90% (3×) and 70% (7×) and 40% (2×) and 30% (2×) and 20% (2×)
blch (% bleaching at the meristem relative to control plants) ([1]; 21 DAT): 0% (15×) and 90% (2×) and 70% (5×) and 50% (2×) and 65% and 45%
ht (% height reduction relative to control plants) ([1]; 21 DAT): 45% (2×) and 85% (3×) and 80% (2×) and 30% and 55% (3×) and 50% (5×) and 40% (3×) and 60% (2×) and 75% and 70% (2×) and 95% and 90%
blch (% bleaching at the meristem relative to control plants) ([2]; 7 DAT, Arabidopsis HST section): 85% and 70% and 75% and 80%
ht (% height reduction relative to control plants) ([2]; 7 DAT, Arabidopsis HST section): 80% and 85% and 75%
blch (% bleaching at the meristem relative to control plants) ([2]; 7 DAT, wheat HPPD section): 85% and 70% and 75% and 80%
ht (% height reduction relative to control plants) ([2]; 7 DAT, wheat HPPD section): 80% and 85% and 75%
blch (% bleaching at the meristem relative to control plants) [2, 3]: 85% and 70% and 75% and 80%
ht (% height reduction relative to control plants) [2, 3]: 80% and 85% and 75%
ht (% height reduction relative to control plants) ([2]; 21 DAT, wheat HPPD section): 95% and 90% and 75% and 80%
ht (% height reduction relative to control plants) ([2]; 26 DAT, Arabidopsis HST section): 95% and 90% and 75% and 80%
ht (% height reduction relative to control plants) ([2]; 26 DAT, Chlamydomonas HST section): 95% and 90% and 75% and 80%
percent damage at 6 DAT ([2]; 150 g/ha, reps): 70%
% damage at 7 DAT ([2]; 150 gai/ha): 75% and 80% and 85%
% damage at 7 DAT ([2]; 300 gai/ha): 75% and 70% and 80%
% damage at 7 DAT ([2]; 450 gai/ha): 70% (2×) and 75%
herbicide % damage ([2]; Compound 2.30, 150 g/ha, 14 DAT, WT control, reps): 60% and 70% and 75%
blch: % bleaching at the meristem relative to control plants [2, 4]: 70% and 75% and 80%
ht: % height reduction relative to control plants [2, 4]: 85% and 90%
blch: % bleaching at the meristem relative to control plants [2, 5]: 80% and 70% and 75%
ht: % height reduction relative to control plants [2, 5]: 90% and 85%
ht: % height reduction relative to control plants ([2]; WT tobacco, spray with 500 g of compound 2.30, 26 DAT): 70% and 85% and 100% and 90% and 80%

CS(=O)(=O)c1ccc(C(=O)C2C(=O)CCCC2=O)c([N+](=O)[O-])c1 [Mesotrione, mesotrione, reference compound]
% damage observed 16 DAT ([1]; 37 g/ha): 0%
% damage observed 16 DAT ([1]; 111 g/ha): 2%
% damage observed 16 DAT ([1]; 333 g/ha): 0%
% damage observed 16 DAT ([1]; 1000 g/ha): 13%
Damage % 5 DAT ([2]; 10 g/ha, 5 DAT, wt plants): 55% and 50% and 60%
% damage observed 16 DAT ([2]; 37 g/ha): 66%
percent damage at 6 DAT ([2]; 100 g/ha, reps): 80% and 70%
% damage observed 16 DAT ([2]; 111 g/ha): 57%
% damage observed 16 DAT ([2]; 333 g/ha): 57%
% damage observed 16 DAT ([2]; 1000 g/ha): 54%
ht (herbicidal damage) ([2]; WT tobacco, 15 g/ha of mesotrione, 21 DAT): 90 and 85 and 75
